Measurements taken from patent US20260174739A1 (priority 2022, published 2026).
Structures can show the parent of a compound that is named as a salt. Where two headings read alike, the source gives them in different places.

How the values were obtained:
[1] = molecular target: human NET (Homo sapiens, UniProt P23975); assay: NET transporter inhibitory activity test (neurotransmitter transporter uptake assay kit); format: cell-based
Procedure: (§1) Transporter inhibition of human DAT and NET expressed in HEK-293 cells was assessed using a neurotransmitter transporter uptake assay kit. The assay was performed as described in the kit instructions, using centanafadine as a positive control. The specific procedures were as follows:
First day cell plating: HEK 293T cells were digested with trypsin, centrifuged, resuspended with a medium, counted, and seeded into a 6 cm culture dish at a density of 3×10^6 cells/well.
Second day cell transfection: HEK 293T cells were subjected to medium exchange, and then A, B tubes were prepared for NET-pcDNA5/FRT plasmid to be transfected. 200 μL of Opti-MEM was added to tube A, and 10 μL of Lipofectamine™ 3000 was added. The mixture was mixed well. 200 μL of Opti-MEM was added to tube B, and 5 μg of NET-pcDNA5/FRT plasmid was added. The mixture was mixed well, and then 10 μL of P3000™ was added to tube B. The mixture was mixed well (plasmid to transfection reagent ratio 1 μg:2 μL). The diluted solution of tube A was added to the diluted solution of tube B. The mixture was mixed well, and incubated at room temperature for 15 min. Finally, the mixture was gently added to the cells that had been subjected to medium exchange, gently shaken to mix, and then incubated overnight in an incubator at 37° C. with a carbon dioxide concentration of 5%. The cells were used for compound functional activity assays 18-20 h after transfection.
• a) After overnight transfection of NET cells, the cells were digested with trypsin, resuspended with DMEM+10% Dialyzed FBS medium, seeded into a 384-well plate at 20000 cells/well, and incubated overnight. Stably transfected DAT cells were digested with trypsin, resuspended with DMEM+10% Dialyzed FBS medium, seeded into a 384-well plate at 2500 cells/well, and incubated overnight. • b) 1× Assay buffer was prepared according to the kit instruction for later use; the positive compound and the test compound were serially diluted with DMSO, and then diluted to 2× with 1× assay buffer. • c) The medium was removed from the 384-well plate by centrifugation. • d) 16 μL of the compound prepared in step b) was added to corresponding experimental wells, wherein an initial concentration of 2× positive control compound was added to the positive control well, and 0.2% DMSO buffer was added to the negative control well. After centrifuging, the plate was incubated at 37° C. for 30 min. • e) A detection reagent was prepared using 1×HBSS, and 16 μL of the detection reagent was added to each well. After centrifuging, the plate was incubated at 37° C. for 60 min. • f) After incubation, the reading at 510 nm under the excitation of the detection wavelength of 425 nm was measured using a microplate reader. Curve fitting and IC50 calculation were performed using GraphPad Prism software nonlinear regression method.

[2] = molecular target: human DAT (Homo sapiens, UniProt Q01959); assay: DAT transporter inhibitory activity test (neurotransmitter transporter uptake assay kit); format: cell-based
Procedure: as §1
DAT stably transfected culture: The DAT-HEK cell line was cultured in DMEM medium containing 10% fetal bovine serum and 0.2 mg/mL hygromycin B at 37° C. with 5% carbon dioxide.
DAT stably transfected cell passage: the old medium was removed, and the cells were washed once with PBS; 1 mL of TrypLE™ Express solution was then added, and the cells were incubated at 37° C. for about 2 min. When the cells were detached from the bottom of the dish, about 5 mL of complete medium pre-heated at 37° C. was added. The cell suspension was gently pipetted to separate the aggregated cells. The cell suspension was transferred to a sterile centrifuge tube and centrifuged at 1000 rpm for 5 min. In order to maintain the physiological activity of the cells, the experimental cell confluence was controlled at about 80%.
• a) After overnight transfection of NET cells, the cells were digested with trypsin, resuspended with DMEM+10% Dialyzed FBS medium, seeded into a 384-well plate at 20000 cells/well, and incubated overnight. […] After centrifuging, the plate was incubated at 37° C. for 30 min. • e) A detection reagent was prepared using 1×HBSS, and 16 μL of the detection reagent was added to each well. […] Curve fitting and IC50 calculation were performed using GraphPad Prism software nonlinear regression method.

[3] = molecular target: human SERT (Homo sapiens, UniProt P31645); assay: Inhibitory activity assay against 5-HT transporter (neurotransmitter transporter uptake assay kit); format: cell-based; conditions: HEK-293 cells overexpressing human SERT; read-out: 5-HTT (IC50)
Procedure: In HEK-293 cells overexpressing human SERT, the transporter inhibitory effect of the test compound on human SERT was assayed using a Neurotransmitter transporter uptake assay kit (Molecular devices).

[4] = In vivo metabolism (pharmacokinetic) experiment in mice; parameters: species or system male ICR mice; conditions: mouse, male ICR mice; for bioavailability: oral 10 mg/kg vs iv 2.5 mg/kg, read-out: F (%); for AUC(0-inf) / Cmax / half-life: oral 10 mg/kg, plasma; for AUC(0-inf): read-out: AUC0-inf(po); for Cmax: read-out: Cmax (po); for half-life: read-out: T1/2 (po) (converted)
Procedure: Animal: male ICR mice. The animals were randomly assigned to treatment groups and fasted for 12 h prior to dosing.
Drug: the compound of the present disclosure was dissolved in a vehicle (5% DMSO+5% Solutol HS15+90% saline). For intravenous (iv) administration, the dose was 2.5 mg/kg with a dosing volume of 5 mL/kg; for oral (po) administration, the dose was 10 mg/kg with a dosing volume of 10 mL/kg body weight. Sample collection and bioanalysis: blood was collected from the orbit of the mice and added into EP tubes containing heparin sodium at 0.083, 0.25, 0.5, 1, 2, 4, 6, and 8 h (n=3 for each time point). Immediately after blood collection, the mice were euthanized by cervical dislocation, and mouse brains were collected at the corresponding time points. All samples were promptly collected, snap-frozen, and stored at −70° C. for later use. Plasma samples were obtained by centrifugation of whole blood. 10 μL of plasma was mixed with 190 μL of internal standard solution (20 ng/ml in acetonitrile containing 0.1% formic acid). After mixing, the samples were centrifuged at 13000 rpm for 10 min, and 120 μL of the supernatant was separately collected. Depending on the sensitivity of the compound, 0.5-10 μL of the supernatant was taken for drug analysis using the appropriate liquid chromatography-tandem mass spectrometry (LC-MS/MS). Each analyte was calibrated and identified using standards. According to brain tissue: the extract (50% acetonitrile/water) at a ratio of 1 g:8 mL was homogenized for 2 min using five 3 mm magnetic beads in an OMNI Bead Ruptor 24 Elite homogenizer at 3.2 m/s and centrifuged at 4° C. and 3000 g for 3 min. 50 μL of the supernatant was mixed with 200 μL of internal standard solution (20 ng/mL in 80% acetonitrile/water). After mixing, the samples were centrifuged at 13,000 rpm for 10 min, and 120 μL of the supernatant was separately collected. Depending on the sensitivity of the compound, 0.5-10 μL of the supernatant was taken for drug analysis using the appropriate LC-MS/MS method. Each analyte was calibrated and identified using standards.
Data analysis: drug concentrations below the lower limit of quantification (LLOQ) were considered zero. Pharmacokinetic parameters were analyzed using PK Solver with a non-compartmental, bolus injection or extravascular input analysis models. Data points below the LLOQ were excluded to improve the efficacy of t1/2 calculation.

[5] = Human liver microsome assay (metabolic stability); format: in vitro ADME; conditions: pH 7.4, human liver microsomes 0.2 mg/mL, 1 μM test drug, NADPH, 37° C.
Procedure: Control and reagent: NADPH, magnesium chloride, testosterone, phosphate buffer, etc. were supplied by Dalian Meilun Biotech Co., Ltd., etc.
Liver microsome: human liver microsomes were supplied by Corning.
Experimental step: the liver microsome incubations were performed in 96-well plates, each incubation system having a volume of 200 μL, in a medium of 0.1 M phosphate buffer (pH 7.4), including liver microsomes at a final concentration of 0.2 mg/mL, 1 μM of the test drug, 3.0 mM MgCl2, 0.01% DMSO, 0.5% acetonitrile, and 2.0 mM NADPH. The incubation system described above without NADPH was pre-incubated at 37° C. for 5 min using a rotary water bath constant temperature oscillator. NADPH was added to initiate the reaction. At 0, 5, 15, 30, and 60 min, 20 μL of the sample was taken out from the incubation system after mixing well and added to 200 μL of acetonitrile containing an internal standard to terminate the reaction. Under the same conditions, 1 μM testosterone was used as a positive control to assess the reliability of the reaction system. For the negative control, phosphate buffer was used instead of NADPH, and all other incubation conditions remained the same. At 60 min, 20 μL of the sample was taken out after mixing well and added to 200 μL of termination solution containing an internal standard to terminate the reaction.
Sample analysis: After treatments such as precipitated protein extraction with an organic solvent, the incubated sample was analyzed using liquid chromatography-tandem mass spectrometry (LC-MS/MS). The concentrations of the test drug or the positive control drug in the sample were semi-quantified. The concentration in the sample was expressed using the ratio of the analyte peak area to the internal standard peak area.
Data processing and analysis: A standard curve of the In residual rate of the drug in the incubation system with respect to the incubation time was plotted by using Excel software, linear regression was performed to obtain a slope k, and the half-life T1/2 (min) and the intrinsic clearance CLint (mL/min/kg) were calculated according to the following formula: […]

[6] = tested on: male C57 mice; assay: Forced swim test; format: in vivo; conditions: intraperitoneal injection, test 0.5 h after dosing, motionless time in last 4 min
Procedure: Drug: the compound of the present disclosure was first uniformly mixed with 5% DMSO and 5% Solutol® HS 15. hysiological saline was then added to make up 90% of the final volume. The mixture was prepared at an appropriate concentration immediately before use.
Animal: male C57 mice, about 22 g. The animals were randomly divided into a blank control group and test drug groups, 8 animals per group, and mice in each group were administered either the vehicle or the test compound via intraperitoneal injection.
Experimental steps: the mice were subjected to forced swim test 0.5 h after dosing. The water level in the forced swim device was 45 cm, and the water temperature was 25° C. The mice were placed in an experimental room to adapt to the environment for 1 h before the experiment began. When the experiment began, the mice were placed in the device for 6 min, and the whole process was recorded by a camera. Only the motionless time of the mice in the last 4 min was counted when data were analyzed.

[7] = DAT stably transfected HEK cells, read-out: DAT (IC50)
[8] = NET transiently transfected HEK 293T cells, read-out: NET (IC50)

Sequence of human SERT (P31645 whole entry): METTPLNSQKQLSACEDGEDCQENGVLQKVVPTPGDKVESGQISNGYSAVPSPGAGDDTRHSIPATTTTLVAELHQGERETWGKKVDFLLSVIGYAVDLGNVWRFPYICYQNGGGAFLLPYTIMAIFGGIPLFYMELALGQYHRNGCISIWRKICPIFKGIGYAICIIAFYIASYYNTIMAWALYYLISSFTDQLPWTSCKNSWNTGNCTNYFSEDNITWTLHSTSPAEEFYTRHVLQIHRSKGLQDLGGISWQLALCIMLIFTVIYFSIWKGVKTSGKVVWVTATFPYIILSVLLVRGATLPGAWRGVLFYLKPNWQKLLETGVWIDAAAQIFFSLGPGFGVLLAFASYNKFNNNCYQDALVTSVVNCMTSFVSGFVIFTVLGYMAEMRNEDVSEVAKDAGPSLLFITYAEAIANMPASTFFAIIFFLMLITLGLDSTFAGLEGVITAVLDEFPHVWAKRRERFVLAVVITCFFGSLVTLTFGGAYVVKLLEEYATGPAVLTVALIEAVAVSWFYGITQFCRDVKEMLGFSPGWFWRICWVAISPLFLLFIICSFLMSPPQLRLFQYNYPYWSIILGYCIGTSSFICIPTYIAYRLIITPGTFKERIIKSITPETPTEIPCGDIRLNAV
Sequence of human DAT (Q01959 whole entry): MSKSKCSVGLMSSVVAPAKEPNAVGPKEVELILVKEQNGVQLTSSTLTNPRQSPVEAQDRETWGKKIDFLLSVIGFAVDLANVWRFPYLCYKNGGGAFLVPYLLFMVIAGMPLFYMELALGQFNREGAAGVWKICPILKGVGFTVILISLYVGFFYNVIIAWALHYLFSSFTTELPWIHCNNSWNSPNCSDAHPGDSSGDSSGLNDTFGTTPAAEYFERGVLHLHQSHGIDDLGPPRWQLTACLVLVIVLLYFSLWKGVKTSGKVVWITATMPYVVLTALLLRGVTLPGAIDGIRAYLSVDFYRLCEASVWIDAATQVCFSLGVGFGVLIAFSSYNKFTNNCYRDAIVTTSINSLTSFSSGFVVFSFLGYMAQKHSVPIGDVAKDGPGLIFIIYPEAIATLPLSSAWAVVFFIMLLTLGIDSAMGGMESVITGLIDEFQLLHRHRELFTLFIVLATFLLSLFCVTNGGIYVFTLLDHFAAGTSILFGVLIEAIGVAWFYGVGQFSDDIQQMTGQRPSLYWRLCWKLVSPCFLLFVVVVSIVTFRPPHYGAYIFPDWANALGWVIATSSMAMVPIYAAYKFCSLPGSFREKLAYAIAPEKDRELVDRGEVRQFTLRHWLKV
Sequence of human NET (P23975 whole entry): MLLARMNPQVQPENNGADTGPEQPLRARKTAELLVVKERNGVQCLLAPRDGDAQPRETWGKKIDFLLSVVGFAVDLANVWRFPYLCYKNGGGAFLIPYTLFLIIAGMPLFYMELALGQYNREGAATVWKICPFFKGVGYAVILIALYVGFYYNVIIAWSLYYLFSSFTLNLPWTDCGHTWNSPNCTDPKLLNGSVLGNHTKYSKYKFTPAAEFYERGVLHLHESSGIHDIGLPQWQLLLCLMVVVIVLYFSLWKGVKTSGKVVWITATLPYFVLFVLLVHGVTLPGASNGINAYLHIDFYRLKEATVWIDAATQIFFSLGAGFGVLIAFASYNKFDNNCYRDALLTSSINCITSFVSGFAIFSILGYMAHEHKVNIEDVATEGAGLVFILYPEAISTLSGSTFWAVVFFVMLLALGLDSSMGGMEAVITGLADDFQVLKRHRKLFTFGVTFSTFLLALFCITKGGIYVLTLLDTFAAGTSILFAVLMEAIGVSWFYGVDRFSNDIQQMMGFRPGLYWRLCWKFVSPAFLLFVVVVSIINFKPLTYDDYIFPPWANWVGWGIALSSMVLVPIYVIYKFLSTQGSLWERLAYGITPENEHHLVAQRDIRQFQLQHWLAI

Compound	IC50 [1] [nM]	IC50 [2, 7] [nM]	IC50 [3] [nM]	further results
CN(C)C1(c2ccccc2)CCc2nc(N)sc2C1 (racemic) [rac-A114, N^6,N^6-dimethyl-6-phenyl-4,5,6,7-tetrahydrobenzothiazole-2,6-diamine]	3500	1000	1000	
CNC1(c2ccc(C(F)(F)F)cc2)CCc2nc(N)sc2C1 (racemic) [rac-A96, 6-(4-trifluoromethylphenyl)-N^6-methyl-4,5,6,7-tetrahydrobenzothiazole-2,6-diamine hydrobromide]	14000			
Nc1nc2c(s1)CC(c1ccccc1)(N1CCCC1)CC2 (racemic) [rac-A50, 6-Phenyl-6-(Pyrrolidin-1-Yl)-4,5,6,7-Tetrahydrobenzothiazol-2-amine]	800	100	1700	bioavailability [4]: 38%; AUC(0-inf) [4]: 321 ng·h/mL; Cmax [4]: 150 ng/mL; half-life [4]: 1.48 h
c1ccc([C@@]2(N3CCCC3)CCc3[nH]ncc3C2)cc1 [R-A12]		2000		IC50 [1, 8]: 3800 nM
c1ccc2cc([C@]34CNC[C@H]3C4)ccc2c1 [Centanafadine, centanafadine, reference compound]	30			IC50 [2]: 80 nM
Nc1nc2c(s1)CC(c1cccc(Cl)c1)(N1CCCC1)CC2 (racemic) [rac-A51, 6-(3-chlorophenyl)-6-(pyrrolidin-1-yl)-4,5,6,7-tetrahydrobenzothiazol-2-amine]	300	200	1200	
Nc1nc2c(s1)CC(N)(c1cccc(F)c1)CC2 (racemic) [rac-A10, 6-(3-fluorophenyl)-4,5,6,7-tetrahydrobenzothiazole-2,6-diamine]	4200	6600	1300	
NC1(c2ccccc2)CCc2[nH]ncc2C1 (racemic) [rac-A65, 5-phenyl-4,5,6,7-tetrahydro-1H-indazol-5-amine]	7000		1900	
Nc1nc2c(s1)CC(NCC1CC1)(c1ccccc1)CC2 (racemic) [rac-A67, 6-phenyl-N^6-(cyclopropylmethyl)-4,5,6,7-tetrahydrobenzothiazole-2,6-diamine]	3000			
CNC1(c2ccccc2)CCCc2sc(N)nc21 (racemic) [rac-A38, N^4-methyl-4-phenyl-4,5,6,7-tetrahydrobenzothiazole-2,4-diamine]				bioavailability ([4]; male, ICR, po, 10 mg/kg): 71%; AUC(0-inf) ([4]; male, ICR, po, 10 mg/kg): 1620 ng·h/mL; Cmax ([4]; male, ICR, po, 10 mg/kg): 360 ng/mL; half-life ([4]; male, ICR, po, 10 mg/kg): 1.8 h; half-life at 1 μM ([5]; read-out: Half-life (t1/2, min)): 98 min; CLint scaled at 1 μM ([5]; read-out: Intrinsic clearance (Clint, mL/min/kg)): 41.3 mL/min/kg; Effective dose [6]: 3 mg/kg
Nc1nc2c(s1)C[C@](c1ccccc1)(N1CCCC1)CC2 [R-A50]				IC50 [1, 8]: 200 nM
